Values quoted from earlier work in patent publication US20240238452A1, “STAINING AGENT FOR GASTROINTESTINAL MUCOSA AND PREPARATION METHOD THEREFOR” (BEIJING COMPONT MEDICAL DEVICES CO., LTD., priority 2023, published 2024).

Key:
[1] = International Journal of Toxicology 2010
[2] = EFSA report 2009

| allowable daily intake (ADI) [2] [mg/kg·bw/day] | SMILES | safety: acute oral, short-term skin, subchronic skin, heredity and other aspects [1] |
| --- | --- | --- |
|  | Cc1ccc(Nc2ccc(O)c3c2C(=O)c2ccccc2C3=O)c(S(=O)(=O)[O-])c1.[Na+] [acid violet 43] | no abnormal report |
| 7 | COc1cc(S(=O)(=O)[O-])c(C)cc1N=Nc1c(O)ccc2cc(S(=O)(=O)[O-])ccc12.[Na+].[Na+] [allure red] |  |
| 5 | O=C1/C(=C2\Nc3ccc(S(=O)(=O)[O-])cc3C2=O)Nc2ccc(S(=O)(=O)[O-])cc21.[Na+].[Na+] [indigo carmine, reference compound] |  |
